Experimental data taken from patent publication US12599560B2, “Lipids and lipid nanoparticle formulations” (Longuide Biopharma Corporation, priority 2023, dated 2026).

Experiments:
[1] = Particle size and PDI by dynamic light scattering; assay type: physicochemical
Experimental: The 7.5 μL nucleic acid lipid nanoparticle solution (containing approximately 0.04 mg/mL mRNA) was taken and added with 200 μL ultrapure water, mixed by gentle blowing using a pipette tip, and the particle size of the nanopreparation was detected by dynamic lightscattering (DLS) using a Malvern Dynamic Light Scattering Instrument (Malvern Instruments Ltd., ZEN3700, UK). 27.5 μL nucleic acid lipid nanoparticle solution (containing about 0.04 mg/mL mRNA) was taken and added with 200 μL ultrapure water. A pipette tip was used to gently blow the sample and mix well. The particle size of the nanopreparation was detected by Malvern Dynamic Light Scattering Instrument (Malvern Instruments Ltd., ZEN3700, UK). After the detection, the sample was recovered to an EP tube, and 600 μL of ultrapure water was added, gently blown with a pipette tip, and the potential of the nanopreparation was measured by a Malvern particle size meter.

mice = assay: In vivo delivery of FLuc-mRNA lipid nanoparticle preparations in mice (IVIS imaging); set-up: In vivo IVIS / In vivo IVIS (liver) / In vivo IVIS (spleen): unit not given here
Experimental: 7. In Vivo Delivery of the Nucleic Acid Lipid Nanoparticle Preparations in Mice After the preparation was completed, the preparation was injected intramuscularly (mice rectus femoris muscle of the thigh) or intravenously (mice tail vein), with approximately 75 μL per mouse, for a total of 3 mice. After a certain time of injection, in vivo imaging (PerkinElmer, IVIS Lumina III) was performed. 10-15 minutes before imaging, 200 μL of 15 mg/mL D-Luciferin working solution was injected intraperitoneally, and the imaging analysis was performed using an in vivo imager.

[2] = Table 2, LNP formulation with mRNA
[3] = Table 2, IV, whole body scan, molar ratio DMG-PEG2000:DSPC:Chol:Lipid and N/P
[4] = Table 4, molar ratio 1.40:11.15:38.95:48.50, N/P 28, IM formulation
[5] = Table 4, molar ratio 2.50:11.50:51.00:35.00, N/P 32, IV formulation

| SMILES | PDI ([1]; Table 4) | Particle size (nm) ([1]; Table 4) | In vivo IVIS (mice; Table 4, IM) | In vivo IVIS (mice; Table 4, IV) | Particle size (nm) [1, 2] | PDI ([1]; Table 2, polydispersity value) | In vivo IVIS (mice; Table 2, IM, whole body scan) | In vivo IVIS (mice; [3]) | further results |
| --- | --- | --- | --- | --- | --- | --- | --- | --- | --- |
| CCCCCCOC(C)OCCCCCCOC(=O)C(O)CN1CCN(CCN(CC(O)C(=O)OCCCCCCOC(C)OCCCCCC)CC(O)C(=O)OCCCCCCOC(C)OCCCCCC)CC1 (stereo not drawn) [Compound L0220] | 0.08 ± 0.02 | 106.97 ± 0.21 nm | 1.32 × 10^6 | 1.82 × 10^8 | – | – | – | – | – |
| CCCCCCCCC(CCCCCC)C(=O)OCCCCCCOC(=O)C(O)CN(CCCN1CCN(CCCN(CC(O)C(=O)OCCCCCCOC(=O)C(CCCCCC)CCCCCCCC)CC(O)C(=O)OCCCCCCOC(=O)C(CCCCCC)CCCCCCCC)CC1)CC(O)C(=O)OCCCCCCOC(=O)C(CCCCCC)CCCCCCCC (stereo not drawn) [Compound L0197] | – | – | – | – | 102.47 ± 0.25 nm | 0.13 ± 0.02 | 3.81 × 10^6 | 5.97 × 10^8 | In vivo IVIS (liver) (mice; Table 2, IV): 2.34 × 10^6; In vivo IVIS (spleen) (mice; Table 2, IV): 7.26 × 10^7 |
| CCCCCCCCCCCCNC(=O)C(O)CN(CCCN1CCN(CCCN(CC(O)C(=O)NCCCCCCCCCCCC)CC(O)C(=O)NCCCCCCCCCCCC)CC1)CC(O)C(=O)NCCCCCCCCCCCC (stereo not drawn) [Compound L0190] | – | – | – | – | 121.87 ± 2.71 nm | 0.20 ± 0.01 | 1.19 × 10^6 | – | – |
| CCCCCCCCCCNC(=O)C(O)CN(CCN1CCN(CCN(CC(O)C(=O)NCCCCCCCCCC)CC(O)C(=O)NCCCCCCCCCC)CC1)CCN(CC(O)C(=O)NCCCCCCCCCC)CC(O)C(=O)NCCCCCCCCCC (stereo not drawn) [Compound L0198] | – | – | – | – | 90.47 ± 0.74 nm | 0.17 ± 0.01 | 9.58 × 10^6 | 4.61 × 10^7 | – |
| CCCCCCCCC(CCCCCC)C(=O)OCCCCCCOC(=O)C(O)CN1CCN(CCN(CC(O)C(=O)OCCCCCCOC(=O)C(CCCCCC)CCCCCCCC)CC(O)C(=O)OCCCCCCOC(=O)C(CCCCCC)CCCCCCCC)CC1 (stereo not drawn) [Compound L0188] | – | – | – | – | 97.72 ± 1.19 nm | 0.22 ± 0.02 | 1.87 × 10^7 | 1.61 × 10^8 | In vivo IVIS (liver) (mice; Table 2, IV): 4.17 × 10^7; In vivo IVIS (spleen) (mice; Table 2, IV): 4.65 × 10^7 |
| CCCCCCCCCCCCCCOC(=O)C(O)CN(CCCN1CCN(CCCN(CC(O)C(=O)OCCCCCCCCCCCCCC)CC(O)C(=O)OCCCCCCCCCCCCCC)CC1)CC(O)C(=O)OCCCCCCCCCCCCCC (stereo not drawn) [Compound L0228] | – | – | 8.22 × 10^6 | 9.28 × 10^9 | – | – | – | – | PDI [1, 4]: 0.18 ± 0.01; Particle size (nm) [1, 4]: 140.50 ± 1.21 nm; PDI [1, 5]: 0.13 ± 0.01; Particle size (nm) [1, 5]: 120.07 ± 0.60 nm |
| CCCCCCCCCCNC(=O)C(O)CN(CC(O)C(=O)NCCCCCCCCCC)[C@H]1CC[C@@H](N(CC(O)C(=O)NCCCCCCCCCC)CC(O)C(=O)NCCCCCCCCCC)CC1 (stereo partly drawn) [Compound L0216] | 0.08 ± 0.02 | 117.97 ± 1.91 nm | 3.58 × 10^5 | 2.18 × 10^5 | – | – | – | – | – |
| CCCCCCCCCCOC(=O)C(O)CN(CCCN1CCN(CCCN(CC(O)C(=O)OCCCCCCCCCC)CC(O)C(=O)OCCCCCCCCCC)CC1)CC(O)C(=O)OCCCCCCCCCC (stereo not drawn) [Compound L0209] | – | – | 7.33 × 10^8 | 1.52 × 10^10 | – | – | – | – | Particle size (nm) ([1]; Table 4, molar ratio 1.00:6.00:44.50:48.50, N/P 40, IV formulation): 99.95 ± 0.74 nm; Particle size (nm) ([1]; Table 4, molar ratio 1.50:6.00:57.50:35.00, N/P 48, IM formulation): 84.17 ± 0.31 nm |
| CCCCCCCCCCCCNC(=O)C(O)CN(CCC(=O)NCCCN1CCN(CCCNC(=O)CCN(CC(O)C(=O)NCCCCCCCCCCCC)CC(O)C(=O)NCCCCCCCCCCCC)CC1)CC(O)C(=O)NCCCCCCCCCCCC (stereo not drawn) [Compound L0194] | – | – | – | – | 109.10 ± 0.50 nm | 0.13 ± 0.00 | 1.08 × 10^6 | 2.14 × 10^5 | – |
| CCCCCCCCCCCCOC(=O)C(O)CN1CCN(CCN(CC(O)C(=O)OCCCCCCCCCCCC)CC(O)C(=O)OCCCCCCCCCCCC)CC1 (stereo not drawn) [Compound L0183] | – | – | – | – | – | – | 2.37 × 10^7 | 5.98 × 10^7 | Particle size (nm) ([1]; Table 2, LNP formulation with mRNA, molar ratio 1.40:11.15:38.95:48.50, N/P 24): 75.73 ± 0.33 nm; Particle size (nm) ([1]; Table 2, LNP formulation with mRNA, molar ratio 1.63:12.99:45.38:40.00, N/P 24): 94.49 ± 1.06 nm; PDI ([1]; Table 2, polydispersity value, molar ratio 1.40:11.15:38.95:48.50, N/P 24): 0.14 ± 0.01; PDI ([1]; Table 2, polydispersity value, molar ratio 1.63:12.99:45.38:40.00, N/P 24): 0.16 ± 0.01 |
| CCCCCCC(CCCCCC)C(=O)OCCCCOC(=O)C(O)CN(CCCN1CCN(CCCN(CC(O)C(=O)OCCCCOC(=O)C(CCCCCC)CCCCCC)CC(O)C(=O)OCCCCOC(=O)C(CCCCCC)CCCCCC)CC1)CC(O)C(=O)OCCCCOC(=O)C(CCCCCC)CCCCCC (stereo not drawn) [Compound L0196] | – | – | – | – | 89.18 ± 0.22 nm | 0.11 ± 0.01 | 1.82 × 10^8 | 2.00 × 10^9 | in vivo delivery efficiency as compared to the benchmark compound SM102 (mice; certain formulations, Table 2): superior in vivo delivery efficiency |
| CC/C=C\CCOCOCCCCCCOC(=O)C(O)CN(CCCN1CCN(CCCN(CC(O)C(=O)OCCCCCCOCOCC/C=C\CC)CC(O)C(=O)OCCCCCCOCOCC/C=C\CC)CC1)CC(O)C(=O)OCCCCCCOCOCC/C=C\CC (stereo not drawn) [Compound L0225] | 0.10 ± 0.01 | 117.87 ± 1.55 nm | 3.13 × 10^8 | 2.15 × 10^9 | – | – | – | – | – |
| CCCCCCCCCCCCNC(=O)C(O)CN(Cc1ccc(CN(CC(O)C(=O)NCCCCCCCCCCCC)CC(O)C(=O)NCCCCCCCCCCCC)cc1)CC(O)C(=O)NCCCCCCCCCCCC (stereo not drawn) [Compound L0208] | 0.14 ± 0.03 | 176.67 ± 1.97 nm | 1.94 × 10^6 | 2.27 × 10^5 | – | – | – | – | – |
| CCCCCCCCCCCCOC(=O)C(O)CN[C@H]1CC[C@@H](N(CC(O)C(=O)OCCCCCCCCCCCC)CC(O)C(=O)OCCCCCCCCCCCC)CC1 (stereo partly drawn) [Compound L0212] | 0.18 ± 0.01 | 95.87 ± 0.24 nm | 1.40 × 10^7 | 1.38 × 10^8 | – | – | – | – | – |
| CCCC/C=C\CCOCOCCCCOC(=O)C(O)CN(CCCN1CCN(CCCN(CC(O)C(=O)OCCCCOCOCC/C=C\CCCC)CC(O)C(=O)OCCCCOCOCC/C=C\CCCC)CC1)CC(O)C(=O)OCCCCOCOCC/C=C\CCCC (stereo not drawn) [Compound L0226] | 0.09 ± 0.03 | 115.53 ± 1.04 nm | 1.41 × 10^8 | 1.24 × 10^9 | – | – | – | – | – |
| CCCCCCCC/C=C\CCCCCCCCNC(=O)C(O)CN1CCN(CCN(CC(O)C(=O)NCCCCCCCC/C=C\CCCCCCCC)CC(O)C(=O)NCCCCCCCC/C=C\CCCCCCCC)CC1 (stereo not drawn) [Compound L0223] | 0.13 ± 0.03 | 98.88 ± 1.32 nm | 1.83 × 10^6 | 1.42 × 10^8 | – | – | – | – | – |
| CCCCCCCCCCCCNC(=O)C(O)CN(CC(=O)NCCCN1CCN(CCCNC(=O)CN(CC(O)C(=O)NCCCCCCCCCCCC)CC(O)C(=O)NCCCCCCCCCCCC)CC1)CC(O)C(=O)NCCCCCCCCCCCC (stereo not drawn) [Compound L0193] | – | – | – | – | 93.86 ± 0.59 nm | 0.11 ± 0.02 | 2.43 × 10^5 | 4.33 × 10^5 | – |
| CCCCCCCCCCCCNC(=O)C(O)CN(CC(O)C(=O)NCCCCCCCCCCCC)[C@H]1CC[C@@H](N(CC(O)C(=O)NCCCCCCCCCCCC)CC(O)C(=O)NCCCCCCCCCCCC)CC1 (stereo partly drawn) [Compound L0213] | 0.18 ± 0.01 | 174.43 ± 1.85 nm | 2.36 × 10^5 | 3.64 × 10^5 | – | – | – | – | – |
| CCCCCCCCCCCCOC(=O)CCN(CCCN1CCN(CCCN(CCC(=O)OCCCCCCCCCCCC)CCC(=O)OCCCCCCCCCCCC)CC1)CCC(=O)OCCCCCCCCCCCC [L0191-Control, reference compound] | – | – | 1.07 × 10^6 | 2.30 × 10^6 | – | – | – | – | delivery efficiency, times lower than the hydroxy compound (L0191 or L0199) (mice; IM administration): ~20 times; delivery efficiency, times lower than the hydroxy compound (L0191 or L0199) (mice; IV administration): about 420 times |
